Assay results from US10227357B2, “Compounds and methods for kinase modulation, and indications therefor” (Plexxikon Inc., priority 2012, dated 2019).

What was measured:
c-kit mutant D816V = biological target: T1, c-kit mutant D816V (Homo sapiens, UniProt P10721, D816V/DEL694-753); assay: c-Kit mutant D816V biochemical assay, AlphaScreen; conditions: c-kit D816V biochemical inhibitory activity; read-out: Biochemical activity (IC50 μM) Kit D816V
T1 construct: residues 551-934, kinase insertion domain residues 694-753 deleted; 6x-histidine (N); made in house; host or cells: E. coli Arctic Express (DE3) RIL (Stratagene)
T1 sequence (P10721 with tags, fused parts or gaps DEL694-753/D816V): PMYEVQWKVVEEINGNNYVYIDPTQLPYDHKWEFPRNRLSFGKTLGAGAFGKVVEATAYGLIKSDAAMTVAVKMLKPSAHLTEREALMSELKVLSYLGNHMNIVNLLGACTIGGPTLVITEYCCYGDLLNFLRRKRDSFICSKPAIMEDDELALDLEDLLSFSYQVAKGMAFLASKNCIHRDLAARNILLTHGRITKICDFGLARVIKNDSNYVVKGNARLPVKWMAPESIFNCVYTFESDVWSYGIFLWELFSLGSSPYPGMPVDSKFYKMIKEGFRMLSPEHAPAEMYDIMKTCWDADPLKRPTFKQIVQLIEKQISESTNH
Summary of the method: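 Eight-point, threefold compound series incubated 30 min at room temperature with E. coli-produced D816V kinase, 10 μM ATP, Mg2+/Mn2+ HEPES buffer pH 7.2 and 5% DMSO. After EDTA stop, streptavidin and anti-phosphotyrosine (PY20) AlphaScreen beads gave the read-out, and IC50 was fitted from the concentration–signal curve.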

c-kit kinase = biological target: T2, c-kit kinase (Homo sapiens, UniProt P10721); assay: c-Kit biochemical assay, AlphaScreen, 10 μM ATP; conditions: c-kit biochemical inhibitory activity; read-out: Biochemical activity (IC50 μM) Kit
T2 construct: The c-kit (or kinase domain thereof) is an active kinase in AlphaScreen; poly-Histidine tag (in-house protein only) (cleaved yes); host or cells: E. coli BL21(DE3)RIL, co-expressed with PTP1B
T2 sequence (P10721 26-976): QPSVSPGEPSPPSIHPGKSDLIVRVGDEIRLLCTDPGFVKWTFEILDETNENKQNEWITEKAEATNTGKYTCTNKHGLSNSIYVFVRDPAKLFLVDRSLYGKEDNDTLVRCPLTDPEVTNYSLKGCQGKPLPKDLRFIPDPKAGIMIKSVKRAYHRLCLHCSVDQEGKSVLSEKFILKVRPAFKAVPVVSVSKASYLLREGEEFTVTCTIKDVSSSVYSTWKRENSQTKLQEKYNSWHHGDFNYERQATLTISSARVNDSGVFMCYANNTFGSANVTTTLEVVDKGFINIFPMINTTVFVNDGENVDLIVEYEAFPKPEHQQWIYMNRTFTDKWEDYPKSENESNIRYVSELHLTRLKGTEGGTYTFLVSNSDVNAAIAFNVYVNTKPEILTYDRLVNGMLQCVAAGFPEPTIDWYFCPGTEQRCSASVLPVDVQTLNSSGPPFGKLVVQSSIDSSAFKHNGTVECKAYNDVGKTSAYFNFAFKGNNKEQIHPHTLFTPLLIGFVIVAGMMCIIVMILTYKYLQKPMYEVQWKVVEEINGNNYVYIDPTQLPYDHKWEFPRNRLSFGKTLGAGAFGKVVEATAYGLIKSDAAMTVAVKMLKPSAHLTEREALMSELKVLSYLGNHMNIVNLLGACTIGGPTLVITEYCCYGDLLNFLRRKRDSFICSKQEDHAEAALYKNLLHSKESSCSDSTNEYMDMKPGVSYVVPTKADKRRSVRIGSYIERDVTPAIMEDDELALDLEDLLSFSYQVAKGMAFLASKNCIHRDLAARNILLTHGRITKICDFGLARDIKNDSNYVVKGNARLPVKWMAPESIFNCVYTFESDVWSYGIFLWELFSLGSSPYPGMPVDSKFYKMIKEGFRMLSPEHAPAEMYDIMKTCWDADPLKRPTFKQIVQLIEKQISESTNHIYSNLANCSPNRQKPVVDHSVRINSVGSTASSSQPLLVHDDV
Summary of the method: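 His-tagged c-Kit expressed in E. coli with co-expressed PTP1B (dephosphorylated), tag removed; 0.1 ng per reaction with biotinylated-peptide substrate in 50 mM HEPES pH 7.2, 5 mM MgCl2, 5 mM MnCl2, 5% DMSO, 10 μM ATP, 1 h at room temperature. Phosphorylation detected by AlphaScreen (streptavidin donor, PY20 acceptor beads); IC50 from 8-point 1:3 dilution series.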

SMILES	IC50 (c-kit mutant D816V)	IC50 (c-kit kinase)
Cc1ccc(-c2cc3c(N4CCN(C(=O)N[C@@H](C)c5cccc(Cl)c5)C(C)(C)C4)ncnc3[nH]2)cn1 [P-0001, N-[(1S)-1-(3-chlorophenyl)ethyl]-2,2-dimethyl-4-[6-(6-methyl-3-pyridyl)-7H-pyrrolo[2,3-d]pyrimidin-4-yl]piperazine-1-carboxamide]	0.0001 to 1 µM	1 to 10 µM
Cc1ccc(-c2cc3c(N4CCN(C(=O)N[C@@H](C)c5cccc(OC(F)F)c5)C(C)(C)C4)ncnc3[nH]2)cn1 [P-0002, N-[(1S)-1-[3-(difluoromethoxy)phenyl]ethyl]-2,2-dimethyl-4-[6-(6-methyl-3-pyridyl)-7H-pyrrolo[2,3-d]pyrimidin-4-yl]piperazine-1-carboxamide]	0.0001 to 1 µM	1 to 10 µM
COc1cccc([C@H](C)NC(=O)N2CCN(c3ncnc4[nH]c(C)cc34)CC2)c1 [P-0003, N-[(1S)-1-(3-methoxyphenyl)ethyl]-4-(6-methyl-7H-pyrrolo[2,3-d]pyrimidin-4-yl)piperazine-1-carboxamide]	0.0001 to 1 µM	10 to 200 µM
COc1cc([C@H](C)NC(=O)N2CCN(c3ncnc4[nH]c(-c5ccc(F)cc5)cc34)C[C@H]2C)ccc1F [P-0004, (2R)-N-[(1S)-1-(4-fluoro-3-methoxy-phenyl)ethyl]-4-[6-(4-fluorophenyl)-7H-pyrrolo[2,3-d]pyrimidin-4-yl]-2-methyl-piperazine-1-carboxamide]	0.0001 to 1 µM	10 to 200 µM
C[C@H](NC(=O)N1CCN(c2ncnc3[nH]c(-c4ccc(F)cc4)cc23)CC1(C)C)c1cccc(F)c1 [P-0005, N-[(1S)-1-(3-fluorophenyl)ethyl]-4-[6-(4-fluorophenyl)-7H-pyrrolo[2,3-d]pyrimidin-4-yl]-2,2-dimethyl-piperazine-1-carboxamide]	0.0001 to 1 µM	1 to 10 µM
C[C@H](NC(=O)N1CCN(c2ncnc3[nH]c(-c4ccc(F)cc4)cc23)CC1(C)C)c1cccc(OC(F)F)c1 [P-0006, N-[(1S)-1-[3-(difluoromethoxy)phenyl]ethyl]-4-[6-(4-fluorophenyl)-7H-pyrrolo[2,3-d]pyrimidin-4-yl]-2,2-dimethyl-piperazine-1-carboxamide]	0.0001 to 1 µM	1 to 10 µM
Cc1ccc(-c2cc3c(N4CCN(C(=O)N[C@@H](C)c5cccc(F)c5)C(C)(C)C4)ncnc3[nH]2)cn1 [P-0007, N-[(1S)-1-(3-fluorophenyl)ethyl]-2,2-dimethyl-4-[6-(6-methyl-3-pyridyl)-7H-pyrrolo[2,3-d]pyrimidin-4-yl]piperazine-1-carboxamide]	0.0001 to 1 µM	10 to 200 µM
C[C@H](NC(=O)N1CCN(c2ncnc3[nH]c(-c4ccc(F)cc4)cc23)CC1(C)C)c1cccc(Cl)c1 [P-0008, N-[(1S)-1-(3-chlorophenyl)ethyl]-4-[6-(4-fluorophenyl)-7H-pyrrolo[2,3-d]pyrimidin-4-yl]-2,2-dimethyl-piperazine-1-carboxamide]	0.0001 to 1 µM	1 to 10 µM
COc1cccc([C@H](C)NC(=O)N2CCN(c3ncnc4[nH]c(-c5ccnc(OC)c5)cc34)CC2(C)C)c1 [P-0009, N-[(1S)-1-(3-methoxyphenyl)ethyl]-4-[6-(2-methoxy-4-pyridyl)-7H-pyrrolo[2,3-d]pyrimidin-4-yl]-2,2-dimethyl-piperazine-1-carboxamide]	0.0001 to 1 µM	1 to 10 µM
Cn1cc(-c2cc3c(N4CCN(c5nc6ccccc6[nH]5)CC4)ncnc3[nH]2)cn1 [P-0010, 4-[4-(1H-benzimidazol-2-yl)piperazin-1-yl]-6-(1-methylpyrazol-4-yl)-7H-pyrrolo[2,3-d]pyrimidine]	0.0001 to 1 µM	0.0001 to 1 µM
Fc1ccc(-c2cc3c(N4CCN(c5nc6ccccc6[nH]5)CC4)ncnc3[nH]2)cc1 [P-0011, 4-[4-(1H-benzimidazol-2-yl)piperazin-1-yl]-6-(4-fluorophenyl)-7H-pyrrolo[2,3-d]pyrimidine]	0.0001 to 1 µM	10 to 200 µM
COc1cc(-c2cc3c(N4CCN(C(=O)N[C@@H](C)c5cccc(OC(F)F)c5)C(C)(C)C4)ncnc3[nH]2)ccn1 [P-0012, N-[(1S)-1-[3-(difluoromethoxy)phenyl]ethyl]-4-[6-(2-methoxy-4-pyridyl)-7H-pyrrolo[2,3-d]pyrimidin-4-yl]-2,2-dimethyl-piperazine-1-carboxamide]	0.0001 to 1 µM	1 to 10 µM
Cc1ccc(-c2cc3c(N4CCN(c5nc6ccccc6[nH]5)CC4)ncnc3[nH]2)cn1 [P-0013, 4-[4-(1H-benzimidazol-2-yl)piperazin-1-yl]-6-(6-methyl-3-pyridyl)-7H-pyrrolo[2,3-d]pyrimidine]	0.0001 to 1 µM	1 to 10 µM
C[C@H](NC(=O)N1CCN(c2ncnc3[nH]c(-c4ccc(F)cc4)cc23)C[C@H]1C)c1cccc(OC(F)F)c1 [P-0014, (2R)-N-[(1S)-1-[3-(difluoromethoxy)phenyl]ethyl]-4-[6-(4-fluorophenyl)-7H-pyrrolo[2,3-d]pyrimidin-4-yl]-2-methyl-piperazine-1-carboxamide]	0.0001 to 1 µM	1 to 10 µM
[2H]C([2H])([2H])Oc1cccc([C@H](C)NC(=O)N2CCN(c3ncnc4[nH]c(-c5ccc(F)cc5)cc34)CC2)c1 [P-0015, 4-[6-(4-fluorophenyl)-7H-pyrrolo[2,3-d]pyrimidin-4-yl]-N-[(1S)-1-[3-(trideuteriomethoxy)phenyl]ethyl]piperazine-1-carboxamide]	0.0001 to 1 µM	1 to 10 µM
C[C@H](NC(=O)N1CCN(c2ncnc3[nH]c(-c4ccc(F)cc4)cc23)CC1)c1cccc(N(C)C)c1 [P-0016, N-[(1S)-1-[3-(dimethylamino)phenyl]ethyl]-4-[6-(4-fluorophenyl)-7H-pyrrolo[2,3-d]pyrimidin-4-yl]piperazine-1-carboxamide]	0.0001 to 1 µM	1 to 10 µM
Cn1cc(-c2cc3ncnc(N4CCN(C(=O)Nc5ccccc5)CC4)c3s2)cn1 [P-0627, 4-[6-(1-methylpyrazol-4-yl)thieno[3,2-d]pyrimidin-4-yl]-N-phenyl-piperazine-1-carboxamide]	–	1 to 10 µM
Cc1ccc(S(=O)(=O)Nc2ccc(-c3ncnc4cc(-c5cnn(C)c5)sc34)cc2)cc1 [P-0628, 4-methyl-N-[4-[6-(1-methylpyrazol-4-yl)thieno[3,2-d]pyrimidin-4-yl]phenyl]benzenesulfonamide]	–	0.0001 to 1 µM
CC(C)(C)c1cc2ncnc(N3CCN(C(=O)NCc4ccc(F)cc4)CC3)c2s1 [P-0637, 4-(6-tert-butylthieno[3,2-d]pyrimidin-4-yl)-N-[(4-fluorophenyl)methyl]piperazine-1-carboxamide]	–	10 to 200 µM
CC(C)(C)c1cc2ncnc(N3CCN(C(=O)Nc4ccc(F)cc4)CC3)c2s1 [P-0639, 4-(6-tert-butylthieno[3,2-d]pyrimidin-4-yl)-N-(4-fluorophenyl)piperazine-1-carboxamide]	–	10 to 200 µM
O=S(=O)(NC1CCN(c2ncnc3[nH]c(-c4cc(Cl)cs4)cc23)CC1)c1ccc(OC(F)(F)F)cc1 [P-0670, N-[1-[6-(4-chloro-2-thienyl)-7H-pyrrolo[2,3-d]pyrimidin-4-yl]-4-piperidyl]-4-(trifluoromethoxy)benzenesulfonamide]	–	10 to 200 µM
C[C@H](NC(=O)N1CCN(c2ncnc3ccsc23)CC1(C)C)c1cccc(Cl)c1 [P-0682, N-[(1S)-1-(3-chlorophenyl)ethyl]-2,2-dimethyl-4-thieno[3,2-d]pyrimidin-4-yl-piperazine-1-carboxamide]	–	10 to 200 µM
